Laboratory results from patent publication US8865655B2, “Depsipeptides and their therapeutic use” (Karus Therapeutics Limited, priority 2006, dated 2014).

Tested on: HDAC (Hela Nuclear Extract)
Experiment: In vitro HDAC fluorescent activity assay (Biomol kit, Fluor de Lys substrate) with Hela Nuclear Extract
Type: biochemical
Conditions: compounds reduced with 30 mM DTT prior to analysis; diluted Hela Nuclear Extract; 37° C. for 1 hour; mean of duplicate samples
Experimental: In vitro HDAC assays were performed using a HDAC fluorescent activity assay kit (Biomol, UK) according to the manufacturer's instructions. Compounds were reduced prior to analysis; 1 mM compound was reduced with 30 mM DTT in DMSO overnight at room temperature, protected from light. Reactions were then set up in a 96-well plate. For each reaction 10 μl compound (5× required concentration in assay buffer) was mixed with […] diluted Hela Nuclear Extract (30-fold in assay buffer). Serial dilutions were set up for each compound. Reactions containing Hela extract only and assay buffer only were also set up. 25 μl diluted Fluor de Lys™ substrate (100-fold in assay buffer) was added to each reaction, which were then incubated at 37° C. for 1 hour. The reaction was stopped by addition of 50 μl Fluor de Lys™ Developer (20-fold dilution in assay buffer, plus TSA diluted 100-fold). The reactions were then incubated at room temperature for 10 minutes before fluorescence was measured using a CytoFluor II Fluorescence Multiwell Plate Reader and CytoFluor II software with filters set at […] for excitation and […] for emission. Inhibition of in vitro HDAC activity was determined for mean values of duplicate samples as percentages relative to HeLa extract only reactions. IC50 values were calculated using GraphPad Prism software.

Row | IC50 [µM] | SMILES
1 | 0.126 ± 0.0053 | CC(=O)SCC/C=C/[C@@H]1CC(=O)N[C@H](C)C(=O)N[C@H](Cc2ccccc2)C(=O)N[C@H](C(C)C)C(=O)NCC(=O)O1 [Compound 17, Thioacetic acid S-[(E)-4-((6R,9R,12R,16S)-9-benzyl-6-isopropyl-12-methyl-2,5,8,11,14-pentaoxo-1-oxa-4,7,10,13-tetraaza-cyclohexadec-16-yl)-but-3-enyl]ester]
2 | 0.047 ± 0.0099 | CC(C)[C@H]1NC(=O)[C@@H](Cc2ccccc2)NC(=O)[C@@H](C)NC(=O)C[C@@H](/C=C/CCS)OC(=O)CNC1=O [Compound 16, (6R,9R,12R,16S)-9-Benzyl-6-isopropyl-16-((E)-4-mercapto-but-1-enyl)-12-methyl-1-oxa-4,7,10,13-tetraaza-cyclohexadecane-2,5,8,11,14-pentaone]
